In ChEMBL document CHEMBL1143809, “New bis-N9-(methylphenylmethyl)purine derivatives: synthesis and antitumor activity” (2007):

What was measured:
Type in all cases: functional
BT-549 = assay: Growth inhibition of human BT549 cells after 48 hrs by SRB protein assay; conditions: BT-549, 48 h
OVCAR-5 = assay: Growth inhibition of human OVCAR5 cells after 48 hrs by SRB protein assay; conditions: OVCAR-5, 48 h
RXF 393 = assay: Growth inhibition of human RXF393 cells after 48 hrs by SRB protein assay; conditions: RXF 393, 48 h
HOP-92 = assay: Growth inhibition of human HOP92 cells after 48 hrs by SRB protein assay; conditions: HOP-92, 48 h
OVCAR-8 = assay: Growth inhibition of human OVCAR8 cells after 48 hrs by SRB protein assay; conditions: OVCAR-8, 48 h
KM12 = assay: Growth inhibition of human KM12 cells after 48 hrs by SRB protein assay; conditions: KM12, 48 h
A498 = assay: Growth inhibition of human A498 cells after 48 hrs by SRB protein assay; conditions: A498, 48 h
T47D = assay: Growth inhibition of human T47D cells after 48 hrs by SRB protein assay
SK-MEL-5 = assay: Growth inhibition of human SK-MEL-5 cells after 48 hrs by SRB protein assay; conditions: SK-MEL-5, 48 h
TK-10 = assay: Growth inhibition of human TK10 cells after 48 hrs by SRB protein assay; conditions: TK-10, 48 h
HOP-62 = assay: Growth inhibition of human HOP62 cells after 48 hrs by SRB protein assay; conditions: HOP-62, 48 h
[1] = Growth inhibition of human NCL-H23 cells after 48 hrs by SRB protein assay; conditions: NCL-H23, 48 h
SF-539 = assay: Growth inhibition of human SF539 cells after 48 hrs by SRB protein assay; conditions: SF-539, 48 h
SW-620 = assay: Growth inhibition of human SW620 cells after 48 hrs by SRB protein assay; conditions: SW-620, 48 h
HCT-15 = assay: Growth inhibition of human HCT15 cells after 48 hrs by SRB protein assay; conditions: HCT-15, 48 h
MCF7 = assay: Anticancer activity against human MCF7 cells assessed as growth at 100 uM after 48 hrs by SRB protein assay relative to control; conditions: MCF7, 48 h, read-out: Activity
M14 = assay: Growth inhibition of human M14 cells after 48 hrs by SRB protein assay; conditions: M14, 48 h
K562 = assay: Growth inhibition of human K562 cells after 48 hrs by SRB protein assay; conditions: K562, 48 h
Hs-578T = assay: Growth inhibition of human HS578T cells after 48 hrs by SRB protein assay
NCI-H460 = assay: Growth inhibition of human NCL-H460 cells after 48 hrs by SRB protein assay; conditions: NCI-H460, 48 h
MOLT-4 = assay: Growth inhibition of human MOLT4 cells after 48 hrs by SRB protein assay; conditions: MOLT-4, 48 h
DU-145 = assay: Growth inhibition of human DU145 cells after 48 hrs by SRB protein assay; conditions: DU-145, 48 h
EKVX = assay: Growth inhibition of human EKVX cells after 48 hrs by SRB protein assay
COLO 205 = assay: Growth inhibition of human COLO205 cells after 48 hrs by SRB protein assay; conditions: COLO 205, 48 h
SK-MEL-28 = assay: Growth inhibition of human SK-MEL-28 cells after 48 hrs by SRB protein assay; conditions: SK-MEL-28, 48 h
SNB-75 = assay: Growth inhibition of human SNB75 cells after 48 hrs by SRB protein assay; conditions: SNB-75, 48 h
UACC-257 = assay: Growth inhibition of human UACC257 cells after 48 hrs by SRB protein assay; conditions: UACC-257, 48 h
UACC-62 = assay: Growth inhibition of human UACC62 cells after 48 hrs by SRB protein assay; conditions: UACC-62, 48 h
PC-3 = assay: Growth inhibition of human PC3 cells after 48 hrs by SRB protein assay; conditions: PC-3, 48 h
A549 = assay: Growth inhibition of human A549 cells after 48 hrs by SRB protein assay; conditions: A549, 48 h
RPMI-8226 = assay: Growth inhibition of human RPMI8226 cells after 48 hrs by SRB protein assay; conditions: RPMI-8226, 48 h
[2] = Growth inhibition of human NCL-H226 cells after 48 hrs by SRB protein assay; conditions: NCL-H226, 48 h
SF-268 = assay: Anticancer activity against human SF268 cells assessed as growth at 100 uM after 48 hrs by SRB protein assay relative to control; conditions: SF-268, 48 h, read-out: Activity
[3] = read-out: LC50 (the source's name)

Work on `Clc1nc(Cl)c2ncn(Cc3ccccc3Cn3cnc4c(Cl)nc(Cl)nc43)c2n1` yielded a GI50 (BT-549) of 0.17 µM, a TGI (BT-549) of 1.51 µM and a CC50 (BT-549; [3]) of 5.01 µM. The GI50 (OVCAR-5) was 20.9 µM, the TGI (OVCAR-5) was 38 µM and the CC50 (OVCAR-5; [3]) was 70.8 µM. It also gave a TGI (RXF 393) of 3.47 µM, a CC50 (RXF 393; [3]) of 7.08 µM and a GI50 (HOP-92) of 1.91 µM. The LC50 (HOP-92) was 9.12 µM, the TGI (HOP-92) was 4.17 µM and the GI50 (OVCAR-8) was 3.02 µM. For the same compound, the LC50 (OVCAR-8) was 49 µM, the TGI (OVCAR-8) was 8.13 µM and the GI50 (KM12) was 3.31 µM. It also gave an LC50 (concentration killing 50% of cells) (KM12) of 34.7 µM, a TGI (KM12) of 10 µM and a GI50 (A498) of 17 µM. The TGI (A498) was 33.9 µM, the CC50 (A498; [3]) was 67.6 µM and the GI50 (T47D) was 2.19 µM. The LC50 (T47D) was over 100 µM, the TGI (T47D) was 5.89 µM and the GI50 (SK-MEL-5) was 2.24 µM. It also gave an LC50 (SK-MEL-5) of 22.9 µM, a TGI (SK-MEL-5) of 6.17 µM and a GI50 (TK-10) of 2.69 µM. For the same compound, the LC50 (50% lethal concentration) (TK-10) was 28.8 µM, the TGI (TK-10) was 7.94 µM and the GI50 (HOP-62) was 21.9 µM. For the same compound, the LC50 (HOP-62) was 72.4 µM, the TGI (HOP-62) was 39.8 µM and the GI50 [1] was 15.5 µM. For the same compound, the LC50 [1] was 67.6 µM, the TGI [1] was 32.4 µM and the LC50 (SF-539) was 0.49 µM. It also gave a TGI (SF-539) of 0.14 µM, a GI50 (SW-620) of 1.86 µM and a TGI (SW-620) of 3.98 µM. For the same compound, the CC50 (SW-620; [3]) was 8.32 µM, the GI50 (HCT-15) was 1.86 µM and the LC50 (HCT-15) was 12.6 µM. The TGI (HCT-15) was 4.47 µM, the growth at 100 µM (MCF7) was 0% and the GI50 (M14) was 15.8 µM. It also gave an LC50 (M14) of 61.7 µM, a TGI (M14) of 38.9 µM and a GI50 (K562) of 1.95 µM. For the same compound, the TGI (K562) was 4.47 µM, the CC50 (K562; [3]) was 15.5 µM and the GI50 (Hs-578T) was 3.09 µM. For the same compound, the LC50 (concentration killing 50% of cells) (Hs-578T) was over 100 µM, the TGI (Hs-578T) was 11.2 µM and the GI50 (NCI-H460) was 3.98 µM. For the same compound, the TGI (NCI-H460) was 17.4 µM, the CC50 (NCI-H460; [3]) was 89.1 µM and the GI50 (MOLT-4) was 1.66 µM. It also gave an LC50 (MOLT-4) of 8.13 µM, a TGI (MOLT-4) of 3.63 µM and a GI50 (DU-145) of 1 µM. For the same compound, the TGI (DU-145) was 2.51 µM, the CC50 (DU-145; [3]) was 6.46 µM and the GI50 (EKVX) was 1.02 µM. The LC50 (EKVX) was 6.76 µM, the TGI (EKVX) was 2.63 µM and the GI50 (COLO 205) was 3.16 µM. The LC50 (COLO 205) was over 100 µM, the TGI (COLO 205) was over 100 µM and the GI50 (SK-MEL-28) was 3.98 µM. For the same compound, the LC50 (SK-MEL-28) was over 100 µM, the TGI (SK-MEL-28) was 24.6 µM and the GI50 (SNB-75) was 5.13 µM. For the same compound, the TGI (SNB-75) was 21.9 µM, the CC50 (SNB-75; [3]) was 81.3 µM and the GI50 (UACC-257) was 7.94 µM. It also gave a TGI (UACC-257) of 23.4 µM, a CC50 (UACC-257; [3]) of 61.7 µM and a GI50 (UACC-62) of 1.74 µM. The LC50 (concentration killing 50% of cells) (UACC-62) was 6.61 µM, the TGI (UACC-62) was 3.39 µM and the GI50 (PC-3) was 2.24 µM. For the same compound, the TGI (PC-3) was 6.76 µM, the CC50 (PC-3; [3]) was 38.9 µM and the GI50 (A549) was 4.79 µM. The LC50 (A549) was over 100 µM, the TGI (A549) was 20.4 µM and the GI50 (RPMI-8226) was 0.55 µM. For the same compound, the TGI (RPMI-8226) was 2.34 µM, the GI50 [2] was 3.09 µM and the LC50 [2] was 26.9 µM. The TGI [2] was 7.24 µM and the growth at 100 µM (SF-268) was 0%.
